Measured values as given in patent US10004701B2, “Methods and compositions for treating infection” (UNIVERSITY OF ROCHESTER, priority 2012, dated 2018).
Counter-ions that a name gives are not always drawn. Like-named read-outs stand apart in the source and are kept apart here.

Legend:
Assay in all cases: AK assay 384-well format, Prestwick library screening
[1] = system: A. baumannii strain 98-37-09; assay type: cell-based, Acinetobacter baumannii; conditions: Acinetobacter baumannii, 983709, 3 h, 50 μM final drug concentration
E. faecium = assay type: cell-based, Enterococcus faecium; conditions: Enterococcus faecium, 3 h, 50 μM final drug concentration
E. coli = assay type: cell-based, Escherichia coli; conditions: Escherichia coli, 3 h, 50 μM final drug concentration
[2] = system: S. aureus strain USA300-0114; assay type: cell-based, Staphylococcus aureus; conditions: Staphylococcus aureus, USA300, 3 h, 50 μM final drug concentration
K. pneumoniae = assay type: cell-based, Klebsiella pneumoniae; conditions: Klebsiella pneumoniae, 3 h, 50 μM final drug concentration
E. cloacae = assay type: cell-based, Enterobacter cloacae; conditions: Enterobacter cloacae, 3 h, 50 μM final drug concentration
P. aeruginosa = assay type: cell-based, Pseudomonas aeruginosa; conditions: Pseudomonas aeruginosa, 3 h, 50 μM final drug concentration
[3] = planktonic, […], read-out: AK-based Prestwick Library Screening Results, E. coli (fold increase in extracellular AK activity)
[4] = planktonic, cutoff for positive-scoring molecules 3-fold increase, read-out: AK-based Prestwick Library Screening Results, A. baumannii (fold increase in extracellular AK activity)
[5] = planktonic, cutoff for positive-scoring molecules 3-fold increase, read-out: AK-based Prestwick Library Screening Results, E. faecium (fold increase in extracellular AK activity)
[6] = planktonic, cutoff for positive-scoring molecules 3-fold increase, read-out: AK-based Prestwick Library Screening Results, E. coli (fold increase in extracellular AK activity)
[7] = planktonic, cutoff for positive-scoring molecules 3-fold increase, read-out: AK-based Prestwick Library Screening Results, S. aureus (fold increase in extracellular AK activity)
[8] = planktonic, cutoff for positive-scoring molecules 3-fold increase, read-out: AK-based Prestwick Library Screening Results, K. pneumoniae (fold increase in extracellular AK activity)
[9] = planktonic, cutoff for positive-scoring molecules 3-fold increase, read-out: AK-based Prestwick Library Screening Results, E. cloacae (fold increase in extracellular AK activity)
[10] = planktonic, cutoff for positive-scoring molecules 3-fold increase, read-out: AK-based Prestwick Library Screening Results, P. aeruginosa (fold increase in extracellular AK activity)

Work on `CCCOc1cc(N)ccc1C(=O)OCCN(CC)CC` [Propoxycaine hydrochloride] yielded a fold induction at 50 µM ([1]; planktonic A. baumannii, positive cutoff 3-fold increase, read-out: AK-based Prestwick library screening result, A. baumannii (fold increase in extracellular AK activity)) of 0.8, a fold induction at 50 µM (E. faecium; planktonic E. faecium, positive cutoff 3-fold increase, read-out: AK-based Prestwick library screening result, E. faecium (fold increase in extracellular AK activity)) of 1 and a fold induction at 50 µM (E. coli; planktonic E. coli, positive cutoff 3-fold increase, read-out: AK-based Prestwick library screening result, E. coli (fold increase in extracellular AK activity)) of 0.6. It also gave a fold induction at 50 µM ([2]; planktonic S. aureus, positive cutoff 3-fold increase, read-out: AK-based Prestwick library screening result, S. aureus (fold increase in extracellular AK activity)) of 0.7, a fold induction at 50 µM (K. pneumoniae; planktonic K. pneumoniae, positive cutoff 3-fold increase, read-out: AK-based Prestwick library screening result, K. pneumoniae (fold increase in extracellular AK activity)) of 0.6 and a fold induction at 50 µM (E. cloacae; planktonic E. cloacae, positive cutoff 3-fold increase, read-out: AK-based Prestwick library screening result, E. cloacae (fold increase in extracellular AK activity)) of 0.8. The fold induction at 50 µM (P. aeruginosa; planktonic P. aeruginosa, positive cutoff 3-fold increase, read-out: AK-based Prestwick library screening result, P. aeruginosa (fold increase in extracellular AK activity)) was 0.7.

`Cc1[nH]ccc2c1[nH]c1cc(=O)ccc12` [Harmol hydrochloride monohydrate] was tested, and the fold induction at 50 µM ([1]; planktonic, […], read-out: AK-based Prestwick Library Screening Results, A. baumannii (fold increase in extracellular AK activity)) was 1.1, the fold induction at 50 µM (E. faecium; planktonic, […], read-out: AK-based Prestwick Library Screening Results, E. faecium (fold increase in extracellular AK activity)) was 1 and the fold induction at 50 µM (E. coli; [3]) was 1.4. For the same compound, the fold induction at 50 µM ([2]; planktonic, […], read-out: AK-based Prestwick Library Screening Results, S. aureus (fold increase in extracellular AK activity)) was 0.9, the fold induction at 50 µM (K. pneumoniae; planktonic, […], read-out: AK-based Prestwick Library Screening Results, K. pneumoniae (fold increase in extracellular AK activity)) was 0.9 and the fold induction at 50 µM (E. cloacae; planktonic, […], read-out: AK-based Prestwick Library Screening Results, E. cloacae (fold increase in extracellular AK activity)) was 1.6. It also gave a fold induction at 50 µM (P. aeruginosa; planktonic, […], read-out: AK-based Prestwick Library Screening Results, P. aeruginosa (fold increase in extracellular AK activity)) of 1.1.

`Cc1noc(NS(=O)(=O)c2ccc(N)cc2)c1C` [Sulfisoxazole] showed a fold induction at 50 µM ([1]; planktonic A. baumannii, cutoff for positive-scoring molecules 3-fold increase, read-out: AK-based Prestwick Library Screening Results, A. baumannii (increase in extracellular AK activity)) of 1, a fold induction at 50 µM (E. faecium; planktonic E. faecium, cutoff for positive-scoring molecules 3-fold increase, read-out: AK-based Prestwick Library Screening Results, E. faecium (increase in extracellular AK activity)) of 0.9 and a fold induction at 50 µM (E. coli; planktonic E. coli, cutoff for positive-scoring molecules 3-fold increase, read-out: AK-based Prestwick Library Screening Results, E. coli (increase in extracellular AK activity)) of 0.7. It also gave a fold induction at 50 µM ([2]; planktonic S. aureus, cutoff for positive-scoring molecules 3-fold increase, read-out: AK-based Prestwick Library Screening Results, S. aureus (increase in extracellular AK activity)) of 0.5, a fold induction at 50 µM (K. pneumoniae; planktonic K. pneumoniae, cutoff for positive-scoring molecules 3-fold increase, read-out: AK-based Prestwick Library Screening Results, K. pneumoniae (increase in extracellular AK activity)) of 0.5 and a fold induction at 50 µM (E. cloacae; planktonic E. cloacae, cutoff for positive-scoring molecules 3-fold increase, read-out: AK-based Prestwick Library Screening Results, E. cloacae (increase in extracellular AK activity)) of 0.7. The fold induction at 50 µM (P. aeruginosa; planktonic P. aeruginosa, cutoff for positive-scoring molecules 3-fold increase, read-out: AK-based Prestwick Library Screening Results, P. aeruginosa (increase in extracellular AK activity)) was 0.6.

In the case of `O=C1OCCN1/N=C/c1ccc([N+](=O)[O-])o1` [Furazolidone], the fold induction at 50 µM [1, 4] is reported as 0.4, the fold induction at 50 µM (E. faecium; [5]) is reported as 0.9 and the fold induction at 50 µM (E. coli; [6]) is reported as 0.8. The fold induction at 50 µM [2, 7] was 0.8, the fold induction at 50 µM (K. pneumoniae; [8]) was 3.2 and the fold induction at 50 µM (E. cloacae; [9]) was 0.6. For the same compound, the fold induction at 50 µM (P. aeruginosa; [10]) was 0.6.

Compound `CO[C@@]1(NC(=O)Cc2cccs2)C(=O)N2C(C(=O)O)=C(COC(N)=O)CS[C@@H]21` [Cefoxitin sodium salt] has a fold induction at 50 µM [1, 4] of 1.3, a fold induction at 50 µM (E. faecium; [5]) of 1 and a fold induction at 50 µM (E. coli; [6]) of 20.1. It also gave a fold induction at 50 µM [2, 7] of 3.4, a fold induction at 50 µM (K. pneumoniae; [8]) of 3.2 and a fold induction at 50 µM (E. cloacae; [9]) of 1.2. The fold induction at 50 µM (P. aeruginosa; [10]) was 0.8.

`COc1cc([C@@H]2c3cc4c(cc3[C@@H](O[C@@H]3O[C@@H]5CO[C@@H](C)O[C@H]5[C@H](O)[C@H]3O)[C@H]3COC(=O)[C@H]23)OCO4)cc(OC)c1O` [Etoposide] gave a fold induction at 50 µM ([1]; planktonic, cutoff for positive 3-fold increase, read-out: AK-based Prestwick Library Screening Results, A. baumannii (fold increase in extracellular AK activity)) of 1.2, a fold induction at 50 µM (E. faecium; planktonic, cutoff for positive 3-fold increase, read-out: AK-based Prestwick Library Screening Results, E. faecium (fold increase in extracellular AK activity)) of 1.1 and a fold induction at 50 µM (E. coli; [3]) of 1.2. The fold induction at 50 µM ([2]; planktonic, cutoff for positive 3-fold increase, read-out: AK-based Prestwick Library Screening Results, S. aureus (fold increase in extracellular AK activity)) was 1.4, the fold induction at 50 µM (K. pneumoniae; planktonic, cutoff for positive 3-fold increase, read-out: AK-based Prestwick Library Screening Results, K. pneumoniae (fold increase in extracellular AK activity)) was 1 and the fold induction at 50 µM (E. cloacae; planktonic, cutoff for positive 3-fold increase, read-out: AK-based Prestwick Library Screening Results, E. cloacae (fold increase in extracellular AK activity)) was 1.4. The fold induction at 50 µM (P. aeruginosa; planktonic, cutoff for positive 3-fold increase, read-out: AK-based Prestwick Library Screening Results, P. aeruginosa (fold increase in extracellular AK activity)) was 1.

In the case of `CC(NCCC(c1ccccc1)c1ccccc1)c1ccccc1` (centres unmarked) [Fendiline hydrochloride], the fold induction at 50 µM ([1]; 384-well format, cutoff for positive-scoring molecules 3-fold increase, read-out: AK-based Prestwick Library Screening Results, A. baumannii (increase in extracellular AK activity)) is reported as 1.5, the fold induction at 50 µM (E. faecium; 384-well format, cutoff for positive-scoring molecules 3-fold increase, read-out: AK-based Prestwick Library Screening Results, E. faecium (increase in extracellular AK activity)) is reported as 1.1 and the fold induction at 50 µM (E. coli; 384-well format, cutoff for positive-scoring molecules 3-fold increase, read-out: AK-based Prestwick Library Screening Results, E. coli (increase in extracellular AK activity)) is reported as 1. It also gave a fold induction at 50 µM ([2]; 384-well format, cutoff for positive-scoring molecules 3-fold increase, read-out: AK-based Prestwick Library Screening Results, S. aureus (increase in extracellular AK activity)) of 0.8, a fold induction at 50 µM (K. pneumoniae; 384-well format, cutoff for positive-scoring molecules 3-fold increase, read-out: AK-based Prestwick Library Screening Results, K. pneumoniae (increase in extracellular AK activity)) of 0.8 and a fold induction at 50 µM (E. cloacae; 384-well format, cutoff for positive-scoring molecules 3-fold increase, read-out: AK-based Prestwick Library Screening Results, E. cloacae (increase in extracellular AK activity)) of 0.9. It also gave a fold induction at 50 µM (P. aeruginosa; 384-well format, cutoff for positive-scoring molecules 3-fold increase, read-out: AK-based Prestwick Library Screening Results, P. aeruginosa (increase in extracellular AK activity)) of 1.1.

With `CN(C)CCOC(c1ccccc1)c1ccccc1` [Diphenhydramine hydrochloride] the fold induction at 50 µM ([1]; planktonic A. baumannii, 384-well, cutoff for positive-scoring molecules 3-fold increase, read-out: AK-based Prestwick Library Screening Results: A. baumannii (increase in extracellular AK activity)) was 1.3, the fold induction at 50 µM (E. faecium; planktonic E. faecium, 384-well, cutoff for positive-scoring molecules 3-fold increase, read-out: AK-based Prestwick Library Screening Results: E. faecium (increase in extracellular AK activity)) was 0.9 and the fold induction at 50 µM (E. coli; planktonic E. coli, 384-well, cutoff for positive-scoring molecules 3-fold increase, read-out: AK-based Prestwick Library Screening Results: E. coli (increase in extracellular AK activity)) was 1.3. The fold induction at 50 µM ([2]; planktonic S. aureus, 384-well, cutoff for positive-scoring molecules 3-fold increase, read-out: AK-based Prestwick Library Screening Results: S. aureus (increase in extracellular AK activity)) was 1.1, the fold induction at 50 µM (K. pneumoniae; planktonic K. pneumoniae, 384-well, cutoff for positive-scoring molecules 3-fold increase, read-out: AK-based Prestwick Library Screening Results: K. pneumoniae (increase in extracellular AK activity)) was 1 and the fold induction at 50 µM (E. cloacae; planktonic E. cloacae, 384-well, cutoff for positive-scoring molecules 3-fold increase, read-out: AK-based Prestwick Library Screening Results: E. cloacae (increase in extracellular AK activity)) was 1.4. The fold induction at 50 µM (P. aeruginosa; planktonic P. aeruginosa, 384-well, cutoff for positive-scoring molecules 3-fold increase, read-out: AK-based Prestwick Library Screening Results: P. aeruginosa (increase in extracellular AK activity)) was 1.
